Results published in patent EP3917907B1, “MODULATORS OF POTASSIUM ION CHANNELS AND USES THEREOF” (Universitá Degli Studi Di Salerno, priority 2019, dated 2020).

Columns and labels:
[1] = molecular target: T1, Kv7.2 (Homo sapiens, UniProt O43526); experiment: Whole-cell patch-clamp on CHO cells transiently expressing Kv7.2; type: cell-based; conditions: CHO cells, mean±SEM, >1 activating, <1 inhibiting; for Idrug/Ictl at 0 mV: ratio of ramp-evoked Kv7.2 current amplitude in presence and absence of drug at 0 mV; for Idrug/Ictl at -40 mV: ratio of ramp-evoked Kv7.2 current amplitude in presence and absence of drug at -40 mV
T1 construct: expressed in transfected cells; host or cells: CHO cells (ATCC CRL-9618), transient transfection, pcDNA3.1(+)
Procedure: According to the experimental protocol, these plasmids were expressed individually or in combination (in particular of Kv7.2 and Kv7.3), together with a plasmid-expressing enhanced green fluorescent protein (Clontech, Palo Alto, CA) used as a transfection marker. Total cDNA in the transfection mixture was kept at 4 µg. CHO cells were grown in 100-mm plastic Petri dishes in Dulbecco's modified Eagle's medium containing 10% fetal bovine serum, nonessential amino acids (0.1 mM), penicillin (50 U/ml), and streptomycin ([…]) in a humidified atmosphere at 37°C with 5% CO2. The cells were plated on glass coverslips coated with poly-L-lysine, and transfected one day after plating with the appropriate cDNA using Lipofectamine 2000 (Life Technologies), according to the manufacturer's protocol.
Currents from CHO cells were recorded at room temperature (20-22°C) 24 hours after trasfection using the whole-cell configuration of the patch-clamp technique, with glass micropipettes of 3-5 MΩ resistance. During the recording, constant perfusion of extracellular solution was maintained. The extracellular solution contained (in mM): 138 NaCl, 2 CaCl2, 5.4 KCl, 1 MgCl2, 10 glucose, and 10 HEPES, at pH 7.4, adjusted with NaOH. The pipette (intracellular) solution contained (in mM): 140 KCl, 2 MgCl2, 10 EGTA, 10 HEPES, 5 Mg^2+-ATP, at pH 7.3-7.4, adjusted with KOH. Currents were recorded using an Axopatch-200A amplifier, filtered at 5 kHz, and digitized using a DigiData 1440A (Molecular Devices). The pCLAMP software (version 10.2, Molecular Devices) was used for data acquisition and analysis. To evaluate the activity of exemplary compounds on Kv7.2 (see Table 1), as well as on Kv7.1, Kv7.2/7.3, Kv7.3 and Kv7.4 channels for selected compounds (see Table 2), the cells were clamped at -80 mV and currents were elicited by 3-s voltage ramps from -80 mV to +20 mV in the presence and absence of each compound. […] The effects of drugs were expressed as shift in the ramp-voltage (ΔV) calculated at 20% of the maximal current (Miceli et al, Proc Natl Acad Sci U S A. 2013, 110(11):4386-91). Curves were fitted using the following equation: y=max/(1+x/EC50)n, where x is the drug concentration, n is the Hill coefficient and max is the maximal value achieved, as previously described (Ambrosino et al, Br J Pharmacol. 2013, 168(6):1430-1444). Data analysis and fit were performed using Sigmaplot (version 12.3).
Ramp-evoked Kv7.2 currents were analyzed by measuring the currents at -40 mV (a membrane potential value close to the activation threshold) and at 0 mV (a membrane potential value at which Kv7.2 conductance is largely saturated). In particular, -40 mV represents the threshold potential for spike initiation and 0 mV represents instead the membrane potential value at which maximal conductance of the channel is achieved.
In Table 1, the effect of exemplary compounds of the invention is expressed as the ratio between current amplitude in the presence (Idrug) and absence (Ictl) of the drug at these two membrane voltages. […]

[2] = Solution stability (HPLC, extracellular solution, ambient temperature); type: physicochemical; conditions: percentage of degradation after 6 h at ambient temperature; 100 ppm in extracellular solution pH 7.4
Procedure: (§1) In order to study the solution stability and photostability of the potassium channel modulators object of the present invention, a stock solution of the proper analyte (1 mg/mL) in dimethylsulfoxide (DMSO) has been prepared. This solution has been then diluted to a concentration of 100 ppm using extracellular solution containing (in mM): 138 NaCl, 2 CaCl2, 5.4 KCl, 1 MgCl2, 10 glucose, and 10 HEPES, at pH 7.4, adjusted with NaOH. To measure solution stability, the diluted solutions have been maintained at ambient temperature for 6 h. To measure photostability, the diluted solutions have been irradiated for 6 h using a Oriel Sol3A Solar Simulator (Newport corporation, Irvine, CA, USA) with a 12x12 inches output beam. Aliquots of solution have been withdrawn after 6h and analyzed by HPLC using a Kinetex C18, 150 mm × 4.6 mm × 2.6 µm (Phenomenex, Bologna, Italy) as stationary phase and a mobile phase constituted by A: H2O/CH3CN (80:20) and B: CH3CN. Gradient elution has been performed from 20% to 90% of B in 7.50 minutes and from 90% to 20% of B in 1 minute. The pump flux has been set to 1.5 mL/min. Column has been thermostatted at 40°C during analysis. Results are espressed in Table 3 as percentage of degradation of the product calculated as ratio between the peak area of the analyte at time 0 (Pa0) and after 6h (Pa6) using the following formula: % degradation = (Pa0−Pa6)/Pa0 *100. [formula]

[3] = Photostability (HPLC, solar simulator irradiation); type: physicochemical; conditions: percentage of degradation after 6 h irradiation with solar simulator; 100 ppm in extracellular solution pH 7.4
Procedure: as §1

Row | Idrug/Ictl at 0 mV [1] | Idrug/Ictl at -40 mV [1] | Solution stability [2] | Photostability [3] | SMILES
1 | 1.94±0.12 | 5.76±1.28 | A (degradation lower than 20%) | A (degradation lower than 20%) | CCCCCCC(=O)Nc1ccc(NCc2ccc(C(F)(F)F)cc2)c(F)c1N [N-(2-amino-3-fluoro-4-((4-(trifluoromethyl)benzyl)amino)phenyl)heptanamide]
2 | 0.92±0.13 | 1.13±0.15 | B (20%< degradation<40%) | C (degradation > 40%) | COc1ccc(CN2c3ccc(NS(=O)(=O)C4CCCCC4)cc3CC2C)cc1 (stereo not shown) [N-(1-(4-methoxybenzyl)-2-methylindolin-5-yl)cyclohexanesulfonamide]
3 | 1.64±0.20 | 1.88±0.14 | A (degradation lower than 20%) | A (degradation lower than 20%) | CC(=O)Nc1ccc2c(c1)CCN2Cc1ccc(F)cc1 [N-(1-(4-fluorobenzyl)indolin-5-yl)acetamide]
4 | 4.24±0.83 | 6.43±1.51 | C (degradation > 40%) | C (degradation > 40%) | COc1ccc(CN2CCc3cc(NS(=O)(=O)C4CCCCC4)ccc32)cc1 [N-(1-(4-methoxybenzyl)indolin-5-yl)cyclohexanesulfonamide]
5 | 1.22±0.07 | 1.85±0.30 | A (degradation lower than 20%) | B (20%< degradation<40%) | O=C(c1ccc(F)cc1)N1CCc2cc(NS(=O)(=O)C3CCCCC3)ccc21 [N-(1-(4-fluorobenzoyl)indolin-5-yl)cyclohexanesulfonamide]
6 | 0.84±0.09 | 0.98±0.09 | A (degradation lower than 20%) | B (20%< degradation<40%) | CC(C)(C)CNC(=N)Nc1ccc2c(c1)CCN2Cc1ccc(F)cc1 [1-(1-(4-fluorobenzyl)indolin-5-yl)-3-neopentylguanidine]
7 | 3.30±0.40 | 8.85±1.17 | A (degradation lower than 20%) | A (degradation lower than 20%) | CCCCCCC(=O)Nc1ccc(NCc2ccc(F)cc2)c(F)c1 [N-(3-fluoro-4-((4-fluorobenzyl)amino)phenyl)heptanamide]
8 | 1.18±0.08 | 1.45±0.08 | A (degradation lower than 20%) | B (20%< degradation<40%) | O=C(Cc1ccc(Cl)cc1)N1CCc2cc(NS(=O)(=O)C3CCCCC3)ccc21 [N-(1-(2-(4-chlorophenyl)acetyl)indolin-5-yl)cyclohexanesulfonamide]
9 | 1.55±0.12 | 2.03±0.19 | C (degradation > 40%) | C (degradation > 40%) | CCCCS(=O)(=O)Nc1ccc2c(c1)CCN2Cc1ccc(F)cc1 [N-(1-(4-fluorobenzyl)indolin-5-yl)butane-1-sulfonamide]
10 | 3.79±1.09 | 5.82±1.38 | C (degradation > 40%) | C (degradation > 40%) | O=S(=O)(Nc1ccc2c(c1)CCN2Cc1ccc(F)cc1F)C1CCCCC1 [N-(1-(2,4-difluorobenzyl)indolin-5-yl)cyclohexanesulfonamide]
11 | 3.09±0.52 | 7.27±1.32 | B (20%< degradation<40%) | C (degradation > 40%) | O=[N+]([O-])c1cc(Br)ccc1CN1CCc2cc(NS(=O)(=O)C3CCCCC3)ccc21 [N-(1-(4-bromo-2-nitrobenzyl)indolin-5-yl)cyclohexanesulfonamide]
12 | 0.48±0.07 | 0.80±0.14 | A (degradation lower than 20%) | B (20%< degradation<40%) | CC(C)[C@H]1CC[C@H](C)C[C@@H]1OC(=O)Nc1ccc2c(c1)CCN2Cc1ccc(F)cc1 [(1S,2R,5S)-2-isopropyl-5-methylcyclohexyl (1-(4-fluorobenzyl)indolin-5-yl)carbamate]
13 | 0.95±0.07 | 1.25±0.19 | B (20%< degradation<40%) | B (20%< degradation<40%) | CN1CCN(S(=O)(=O)Nc2ccc3c(c2)CCN3Cc2ccc(F)cc2)CC1 [N-(1-(4-fluorobenzyl)indolin-5-yl)-4-methylpiperazine-1-sulfonamide]
14 | 1.71±0.12 | 2.37±0.40 | A (degradation lower than 20%) | A (degradation lower than 20%) | O=C(CC1CCCCC1)Nc1ccc2c(c1)CCN2Cc1ccc(F)cc1 [2-cyclohexyl-N-(1-(4-fluorobenzyl)indolin-5-yl)acetamide]
15 | 2.11±0.18 | 4.56±1.11 | C (degradation > 40%) | C (degradation > 40%) | O=S(=O)(Nc1ccc2c(c1)CCN2Cc1ccc(F)c(F)c1)C1CCCCC1 [N-(1-(3,4-difluorobenzyl)indolin-5-yl)cyclohexanesulfonamide]
16 | 2.18±0.09 | 2.48±0.20 | B (20%< degradation<40%) | C (degradation > 40%) | CCCCCCS(=O)(=O)Nc1ccc2c(c1)CCN2Cc1ccc(F)cc1 [N-(1-(4-fluorobenzyl)indolin-5-yl)hexane-1-sulfonamide]
17 | 2.76±0.19 | 4.71±1.31 | A (degradation lower than 20%) | A (degradation lower than 20%) | O=S(=O)(Nc1ccc2c(ccn2Cc2ccc(F)cc2)c1)C1CCCCC1 [N-(1-(4-fluorobenzyl)-1H-indol-5-yl)cyclohexanesulfonamide]
18 | 1.40±0.08 | 3.31±0.61 | A (degradation lower than 20%) | A (degradation lower than 20%) | CC(C)(C)CNC(=O)Nc1ccc2c(c1)CCN2Cc1ccc(F)cc1 [1-(1-(4-fluorobenzyl)indolin-5-yl)-3-neopentylurea]
19 | 1.93±0.19 | 2.27±0.49 | A (degradation lower than 20%) | A (degradation lower than 20%) | O=S(=O)(Nc1ccc2c(ccn2Cc2ccc(C(F)(F)F)cc2)c1)C1CCCCC1 [N-(1-(4-(trifluoromethyl)benzyl)-1H-indol-5-yl)cyclohexanesulfonamide]
